Biological target: POLRMT (Homo sapiens (Human), UniProt O00411)
Assay: homogeneous TR-FRET assay of mitochondrial transcription (inhibition of POLRMT)
Assay type: biochemical
Conditions: 7.5 nM POLRMT, 15 nM TFB2M, 30 nM TFAM, 60 minutes at 37° C.
Method: The inhibitory activity of the compounds of the present invention against POLRMT were determined by assays based on Bergbrede, T., et al., “An adaptable high-throughput technology enabling the identification of specific transcription modulators,” SLAC Discov., 22, 378-386 (2017).
The ability of some compounds of the present invention to inhibit POLRMT were determined in a homogeneous TR-FRET Assay using high-throughput screening in a 384-well plate format. This method is used to monitor the activity of mitochondrial transcription through measurement of its product, a 407 bp long RNA transcript. Detection of the product is facilitated by hybridization of two DNA-oligonucleotide probes to specific and adjacent sequences within the RNA product sequence. Upon annealing of the probes, two fluorophores are coupled directly to an acceptor nucleotide probe (ATTO647, 5′), or introduced via a coupled streptavidin with a biotinylated donor nucleotide probe (Europium cryptate) that is brought into sufficient proximity to serve as a fluorescence-donor-acceptor pair. Thus, a FRET signal at 665 nm is generated upon excitation at 340 nm.
Proteins used as transcription factors (POLRMT: NP_005026.3, TFAM: NP_003192.1, TFB2M: NP_071761.1) are diluted from their stocks to working concentrations of 1 μM, 20 μM and 4 μM respectively, in a dilution buffer containing 20 mM Tris-HCl (pH 8.0), 200 mM NaCl, 10% (v/v) glycerol, 1 mM Dithiothreitol (DTT), 0.5 mM EDTA.
DNA template is a pUC18 plasmid with the mitochondrial light strand promotor sequence (1-477) cloned between HindIII and BamHI sites. The DNA template is restriction linearized proximal to the promotor 3′-end (pUC-LSP).
The reaction mixture (10 uL) containing 7.5 nM POLRMT, 15 nM of TFB2M, 30 nM of TFAM, 0.5 nM of DNA template and 500 μM nucleotide triphosphate mix (NTPs) in a reaction buffer (containing 10 mM Tris-HCl (pH 7.5), 10 mM MgCl2, 40 mM NaCl, 10 mM DTT, 0.005% (w/v) Tween-20, 160 units/ml Rnase inhibitor and 0.1 mg/mL BSA) are dispensed to compounds in microplates, using a Thermo Multidrop® dispenser, and incubated at 37° C. in a VWR INCU-Line incubator for 60 minutes after mixing. No nucleotide triphosphate mix is added to negative control samples. Microplates with compounds to be tested in the assay are prepared from 10 mM compound stocks in 100% DMSO, equal amounts of DMSO without any compound are added to positive control and negative control samples.
During the incubation, a mix of the detection reagents is prepared in a buffer such that the enzymatic reaction is terminated due to chelating of Mg-ions and increased ionic strength, containing 50 mM Tris-HCl (pH 7.5), 700 mM NaCl, 20 mM EDTA, and 0.01% (w/v) Tween-20. Europium-streptavidin is pre-incubated with a 200-fold molar excess of a random sequence oligonucleotide to block unspecific binding of oligo, for two hours at ambient temperature in the dark. Afterwards, the blocked Europium-streptavidin is kept on ice until use.
At the end of the enzymatic reaction time, 5 μL detection oligo mix in the detection buffer is added, and assay plates are mixed and kept at ambient temperature for one hour, protected from light. The concentration of the Acceptor nucleotide oligo (e.g., ATTO647N-5′-[…]-3′ (SEQ ID NO: 1)) and Donor nucleotide oligo (e.g., bio-5′-AACACATCTCT(-bio)GCCAAACCCCA-bio-3′ (SEQ ID NO: 2)) in each assay well is 1 nM, and 3 nM, respectively.
After incubation with oligo mix, 5 μL of pre-blocked Europium-streptavidin reagent is dispensed to each assay well, assay plates are again mixed and kept at ambient temperature for one hour, protected from light.
The generated signal is measured with BMG Pherastar microtiter plate reader with a TRF light unit, using excitation at 340 nm, an integration time of 200 μs, and a delay time of […], before detection at 620 nm and 665 nm. The ratio of donor- and acceptor-fluorescence is used as a measure of the generated transcript product (i.e. enzymatic activity).

Sequence of POLRMT (O00411 42-1230): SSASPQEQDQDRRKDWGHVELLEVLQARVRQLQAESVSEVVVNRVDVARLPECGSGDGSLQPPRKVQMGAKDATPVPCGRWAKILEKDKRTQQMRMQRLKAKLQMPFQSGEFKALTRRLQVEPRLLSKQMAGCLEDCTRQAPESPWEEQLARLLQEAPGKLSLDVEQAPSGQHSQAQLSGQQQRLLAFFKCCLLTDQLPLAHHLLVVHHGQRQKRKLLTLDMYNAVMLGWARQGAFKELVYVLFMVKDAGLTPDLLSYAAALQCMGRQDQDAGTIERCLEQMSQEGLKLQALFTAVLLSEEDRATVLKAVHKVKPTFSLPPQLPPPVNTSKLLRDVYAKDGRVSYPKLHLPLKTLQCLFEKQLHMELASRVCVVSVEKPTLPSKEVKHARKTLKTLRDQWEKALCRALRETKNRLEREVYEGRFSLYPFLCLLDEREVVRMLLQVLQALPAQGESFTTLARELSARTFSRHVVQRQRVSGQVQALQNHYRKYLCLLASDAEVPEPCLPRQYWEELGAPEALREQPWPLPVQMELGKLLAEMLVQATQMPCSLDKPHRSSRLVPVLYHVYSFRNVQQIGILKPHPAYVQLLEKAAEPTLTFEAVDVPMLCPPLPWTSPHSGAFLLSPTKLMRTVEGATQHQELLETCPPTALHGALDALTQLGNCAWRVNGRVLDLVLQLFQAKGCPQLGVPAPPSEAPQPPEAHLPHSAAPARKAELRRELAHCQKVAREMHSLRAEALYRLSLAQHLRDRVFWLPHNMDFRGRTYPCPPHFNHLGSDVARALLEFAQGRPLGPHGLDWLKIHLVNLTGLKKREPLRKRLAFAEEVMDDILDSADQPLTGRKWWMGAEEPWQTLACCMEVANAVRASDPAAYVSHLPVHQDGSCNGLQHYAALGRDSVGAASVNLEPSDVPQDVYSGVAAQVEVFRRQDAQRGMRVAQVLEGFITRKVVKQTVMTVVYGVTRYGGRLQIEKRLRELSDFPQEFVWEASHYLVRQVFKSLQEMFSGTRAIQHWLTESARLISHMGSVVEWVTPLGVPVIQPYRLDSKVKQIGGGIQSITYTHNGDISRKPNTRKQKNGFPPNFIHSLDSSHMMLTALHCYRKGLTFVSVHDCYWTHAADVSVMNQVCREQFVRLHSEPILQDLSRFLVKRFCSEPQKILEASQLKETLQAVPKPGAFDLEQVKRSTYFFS

Compound | IC50
Cc1ccccc1-c1ccnc2cc(CC(=O)O)ccc12 [Example 29, 2-(4-(o-tolyl)quinolin-7-yl)acetic acid] | 97 µM
Cc1ccccc1-c1ccnc2cc(CC(=O)NC3CC3)ccc12 [Example 30, N-cyclopropyl-2-(4-(o-tolyl)quinolin-7-yl)acetamide] | 91 µM
COCCc1ccc2c(-c3ccccc3C)ccnc2c1 [Example 31, 7-(2-methoxyethyl)-4-(o-tolyl)quinoline] | 6 µM
Cc1ccccc1-c1ccnc2cc(CN(C)S(C)(=O)=O)ccc12 [Example 32, N-methyl-N-((4-(o-tolyl)quinolin-7-yl)methyl)methanesulfonamide] | 24 µM
Cc1ccccc1-c1ccnc2cc(C#N)ccc12 [Example 33, 4-(o-tolyl)quinoline-7-carbonitrile] | 74 µM
Cc1ccccc1-c1ccnc2cc(CC(=O)N3CCOCC3)ccc12 [Example 36, 1-morpholino-2-(4-(o-tolyl)quinolin-7-yl)ethan-1-one] | > 100 µM
Cc1ccccc1-c1ccnc2cc(CC(=O)N3CCN(C)CC3)ccc12 [Example 39, 1-(4-methylpiperazin-1-yl)-2-(4-(o-tolyl)quinolin-7-yl)ethan-1-one] | > 100 µM
CC(=O)N1CCN(C(=O)Cc2ccc3c(-c4ccccc4C)ccnc3c2)CC1 [Example 40, 1-(4-acetylpiperazin-1-yl)-2-(4-(o-tolyl)quinolin-7-yl)ethan-1-one] | > 100 µM
Cc1ccccc1-c1ccnc2cc(CC(=O)NCC3CC3)ccc12 [Example 41, N-(cyclopropylmethyl)-2-(4-(o-tolyl)quinolin-7-yl)acetamide] | 91 µM
Cc1ccccc1-c1ccnc2cc(CC(N)=O)ccc12 [Example 42, 2-(4-(o-tolyl)quinolin-7-yl)acetamide] | > 100 µM
Cc1ccccc1-c1ccnc2cc(CC(=O)N(C)C)ccc12 [Example 43, N,N-dimethyl-2-(4-(o-tolyl)quinolin-7-yl)acetamide] | > 100 µM
CNC(=O)Cc1ccc2c(-c3ccccc3C)ccnc2c1 [Example 44, N-methyl-2-(4-(o-tolyl)quinolin-7-yl)acetamide] | > 100 µM
Cc1ccccc1-c1ccnc2cc(NC(C)C(=O)N3CCCCC3)ccc12 (stereo not shown) [Example 45, 1-(piperidin-1-yl)-2-((4-(o-tolyl)quinolin-7-yl)amino)propan-1-one] | 4 µM
Cc1ccccc1-c1ccnc2cc(NC(C)C(=O)N3CCOCC3)ccc12 (stereo not shown) [Example 46, 1-morpholino-2-((4-(o-tolyl)quinolin-7-yl)amino)propan-1-one] | 8 µM
Cc1ccccc1-c1ccnc2cc(NC(C)C(=O)N(C)C)ccc12 (stereo not shown) [Example 47, N,N-dimethyl-2-((4-(o-tolyl)quinolin-7-yl)amino)propanamide] | 26 µM
Cc1ccccc1-c1ccnc2cc(C(C)OCC(=O)O)ccc12 (stereo not shown) [Example 54, 2-(1-(4-(o-tolyl)quinolin-7-yl)ethoxy)acetic acid] | > 100 µM
Cc1ccccc1-c1ccnc2cc(C(C)OCC(=O)N(C)C)ccc12 (stereo not shown) [Example 55, N,N-dimethyl-2-(1-(4-(o-tolyl)quinolin-7-yl)ethoxy)acetamide] | > 100 µM
Cc1ccccc1-c1ccnc2cc(C(C)OCC(N)=O)ccc12 (stereo not shown) [Example 56, 2-(1-(4-(o-tolyl)quinolin-7-yl)ethoxy)acetamide] | > 100 µM
CNC(=O)COC(C)c1ccc2c(-c3ccccc3C)ccnc2c1 (stereo not shown) [Example 57, N-methyl-2-(1-(4-(o-tolyl)quinolin-7-yl)ethoxy)acetamide] | > 100 µM
